Experimental data: US11753446B2, “Beta-hairpin peptidomimetics” (POLYPHOR AG, priority 2014, dated 2023)
Where a SMILES comes first, the peptide text is derived from it. Bridges are numbered along the chain shown (N, C = ends). Triazole bridges read from a SMILES are 1,4-linked. [ ]: non-standard residue; d: D form. Aha = [N-]=[N+]=NCC[C@H](N)C(=O)O; Tle = CC(C)(C)[C@H](N)C(=O)O; dDab = NCC[C@@H](N)C(=O)O; Orn = NCCC[C@H](N)C(=O)O; Pra = C#CC[C@H](N)C(=O)O; Dab = NCC[C@H](N)C(=O)O; Dap = NC[C@H](N)C(=O)O

Key:
[1] = system: Acinetobacter baumannii DSM 30008; type: cell-based; details: DSM 30008
How it was run: (§1)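 Peptide activity was tested by NCCLS broth microdilution with slight modifications. Bacteria were diluted in cation-adjusted Mueller-Hinton II broth to approximately 10^6 CFU/mL against a 0.5 McFarland standard. They were then exposed to two-fold serial peptide dilutions in broth containing 0.002% final polysorbate 80.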

[2] = system: Escherichia coli ATCC 25922; type: cell-based; details: ATCC 25922
How it was run: as §1

[3] = system: Klebsiella pneumoniae ATCC 13883; type: cell-based; details: ATCC 13883
How it was run: as §1

[4] = system: human red blood cells (hRBC); assay: Hemolysis: hemolytic activity at 100 μg/mL, 1 h at 37° C.; details: red cells of human, 1 h
How it was run: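 Peptides at 100 μg/mL incubated with washed 20% (v/v) human erythrocytes (~0.9×10^9 cells/mL) for 1 h at 37 °C with shaking. Released hemoglobin read at OD 540 nm in supernatant; 0% and 100% lysis from PBS/0.001% acetic acid and 2.5% Triton X-100.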

Structure (SMILES)	Acinetobacter baumannii DSM 30008 MIC [1]	Escherichia coli ATCC 25922 MIC [2]	Klebsiella pneumoniae ATCC 13883 MIC [3]	Hemolysis at 100 μg/mL [4]; 100	Hemolysis at 100 μg/mL ([4]; 100 μg/mL)
CC(C)C[C@@H]1NC(=O)[C@H](CCCNC(=N)N)NC(=O)[C@@H](CCN)NC(=O)[C@H](C(C)C)NC(=O)[C@@H]2CSSC[C@H](NC1=O)C(=O)N[C@@H](Cc1ccc(O)cc1)C(=O)N[C@@H](CN)C(=O)N[C@@H](CCCN)C(=O)N[C@H](CCN)C(=O)N[C@@H](CCN)C(=O)N[C@@H](Cc1c[nH]c3ccccc13)C(=O)N[C@@H](CO)C(=O)N[C@@H](Cc1ccc(O)cc1)C(=O)N2 [Example 72, cyclo(-Leu-Cys-Tyr-Dap-Orn-^DDab-Dab-Trp-Ser-Tyr-Cys-Val-^DDab-Arg-)] (cyclo(CV[dDab]RLCY[Dap][Orn][dDab][Dab]WSY); disulfide 1-6)	0.625 µg/mL	0.75 µg/mL	0.5 µg/mL	3%	
CC(C)C[C@@H]1NC(=O)[C@H](CCCNC(=N)N)NC(=O)[C@@H](CCN)NC(=O)[C@H](C(C)C)NC(=O)[C@@H]2CSSC[C@H](NC1=O)C(=O)N[C@@H](C(C)C)C(=O)N[C@@H](C(C)C)C(=O)N[C@@H](CCCN)C(=O)N[C@H](CCN)C(=O)N[C@@H](CCN)C(=O)N[C@@H](Cc1c[nH]c3ccccc13)C(=O)N[C@@H](Cc1ccc(O)cc1)C(=O)N[C@@H](Cc1ccc(O)cc1)C(=O)N2 [Example 20, cyclo(-Leu-Cys-Val-Val-Orn-^DDab-Dab-Trp-Tyr-Tyr-Cys-Val-^DDab-Arg-)] (HELM PEPTIDE1{C.V.V.[Orn].[NCC[C@@H](N[*:1])C(=O)[*:2]].[Dab].W.Y.Y.C.V.[NCC[C@@H](N[*:1])C(=O)[*:2]].R.L}$PEPTIDE1,PEPTIDE1,1:R3-10:R3|PEPTIDE1,PEPTIDE1,1:R1-14:R2$$$V2.0)	0.25 µg/mL	1 µg/mL	1 µg/mL	7%	
CC(C)C[C@@H]1NC(=O)[C@H](CCN)NC(=O)[C@@H](CCN)NC(=O)[C@H]([C@@H](C)O)NC(=O)[C@@H]2CSSC[C@H](NC1=O)C(=O)N[C@@H](Cc1ccc(O)cc1)C(=O)N[C@@H](CC(N)=O)C(=O)N[C@@H](CCCN)C(=O)N[C@H](CCN)C(=O)N[C@@H](CCN)C(=O)N[C@@H](Cc1c[nH]c3ccccc13)C(=O)N[C@@H](CO)C(=O)N[C@@H](Cc1ccc(O)cc1)C(=O)N2 [Example 7, cyclo(-Leu-Cys-Tyr-Asn-Orn-^DDab-Dab-Trp-Ser-Tyr-Cys-Thr-^DDab-Dab-)] (HELM PEPTIDE1{C.T.[NCC[C@@H](N[*:1])C(=O)[*:2]].[Dab].L.C.Y.N.[Orn].[NCC[C@@H](N[*:1])C(=O)[*:2]].[Dab].W.S.Y}$PEPTIDE1,PEPTIDE1,1:R3-6:R3|PEPTIDE1,PEPTIDE1,1:R1-14:R2$$$V2.0)	2 µg/mL	2 µg/mL	1 µg/mL	1%	
CC(C)C[C@@H]1NC(=O)[C@H](CCCNC(=N)N)NC(=O)[C@H]2CCCN2C(=O)[C@H](C(C)C)NC(=O)[C@H]([C@@H](C)O)NC(=O)[C@H](C(C)C)NC(=O)[C@@H]2CSSC[C@H](NC(=O)[C@H](Cc3ccc(O)cc3)NC(=O)[C@H]([C@@H](C)O)NC1=O)C(=O)N[C@@H](CCN)C(=O)N[C@@H](CCN)C(=O)N[C@@H](CCN)C(=O)N[C@@H](Cc1c[nH]c3ccccc13)C(=O)N2 [Example 35, cyclo(-Leu-Thr-Tyr-Cys-Dab-Dab-Dab-Trp-Cys-Val-Thr-Val-^DPro-Arg-)] (HELM PEPTIDE1{C.[Dab].[Dab].[Dab].W.C.V.T.V.[dP].R.L.T.Y}$PEPTIDE1,PEPTIDE1,1:R3-6:R3|PEPTIDE1,PEPTIDE1,1:R1-14:R2$$$V2.0)	1 µg/mL	2 µg/mL	2 µg/mL	4%	
CC(C)C[C@@H]1NC(=O)[C@H](CCCNC(=N)N)NC(=O)[C@H]2CCCN2C(=O)[C@H](C(C)C)NC(=O)[C@@H]2CSSC[C@H](NC1=O)C(=O)N[C@@H](Cc1ccc(O)cc1)C(=O)N[C@@H](C)C(=O)N[C@@H](CCN)C(=O)N[C@H](CCN)C(=O)N[C@@H](CCN)C(=O)N[C@@H](Cc1c[nH]c3ccccc13)C(=O)N[C@@H](C)C(=O)N[C@@H](C(C)C)C(=O)N2 [Example 2, cyclo(-Leu-Cys-Tyr-Ala-Dab-^DDab-Dab-Trp-Ala-Val-Cys-Val-^DPro-Arg-)] (HELM PEPTIDE1{A.[Dab].[NCC[C@@H](N[*:1])C(=O)[*:2]].[Dab].W.A.V.C.V.[dP].R.L.C.Y}$PEPTIDE1,PEPTIDE1,8:R3-13:R3|PEPTIDE1,PEPTIDE1,1:R1-14:R2$$$V2.0)	2.5 µg/mL	4 µg/mL	2 µg/mL	5%	
CC[C@H](C)[C@@H]1NC(=O)[C@H](CCCNC(=N)N)NC(=O)[C@@H](CCN)NC(=O)[C@H](CO)NC(=O)[C@@H]2CSSC[C@H](NC1=O)C(=O)N[C@@H](Cc1ccc(O)cc1)C(=O)N[C@@H](CCN)C(=O)N[C@@H](CCCN)C(=O)N[C@H](CCN)C(=O)N[C@@H](CCN)C(=O)N[C@@H](Cc1c[nH]c3ccccc13)C(=O)N[C@@H](CCN)C(=O)N[C@@H](C(C)(C)C)C(=O)N2 [Example 12, cyclo(-Ile-Cys-Tyr-Dab-Orn-^DDab-Dab-Trp-Dab-tBuGly-Cys-Ser-^DDab-Arg-)] (cyclo(CS[dDab]RICY[Dab][Orn][dDab][Dab]W[Dab][Tle]); disulfide 1-6)	1 µg/mL	0.5 µg/mL	1 µg/mL	1%	
CC(C)C[C@@H]1NC(=O)[C@H](CCCNC(=N)N)NC(=O)[C@H]2CCCN2C(=O)[C@H](C(C)C)NC(=O)[C@@H]2CSSC[C@H](NC1=O)C(=O)N[C@@H](Cc1ccc(O)cc1)C(=O)N[C@H]1CSSC[C@H](NC(=O)[C@H](Cc3c[nH]c4ccccc34)NC(=O)[C@H](CCN)NC(=O)[C@@H](CCN)NC(=O)[C@H](CCN)NC1=O)C(=O)N[C@@H](Cc1ccc(O)cc1)C(=O)N2 [Example 43, cyclo(-Leu-Cys-Tyr-Cys-Dab-^DDab-Dab-Trp-Cys-Tyr-Cys-Val-^DPro-Arg-)] (HELM PEPTIDE1{C.[Dab].[NCC[C@@H](N[*:1])C(=O)[*:2]].[Dab].W.C.Y.C.V.[dP].R.L.C.Y}$PEPTIDE1,PEPTIDE1,1:R3-6:R3|PEPTIDE1,PEPTIDE1,8:R3-13:R3|PEPTIDE1,PEPTIDE1,1:R1-14:R2$$$V2.0)	1 µg/mL	4 µg/mL	2 µg/mL		2%
CC[C@H](C)[C@@H]1NC(=O)[C@H](CCCNC(=N)N)NC(=O)[C@@H](CCN)NC(=O)[C@H](Cc2ccc(O)cc2)NC(=O)[C@@H]2CSSC[C@H](NC1=O)C(=O)N[C@@H](Cc1ccc(O)cc1)C(=O)N[C@@H](CC(N)=O)C(=O)N[C@@H](CCCN)C(=O)N[C@H](CCN)C(=O)N[C@@H](CCN)C(=O)N[C@@H](CC(C)C)C(=O)N[C@@H](CO)C(=O)N[C@@H](C(C)C)C(=O)N2 [Example 5, cyclo(-Ile-Cys-Tyr-Asn-Orn-^DDab-Dab-Leu-Ser-Val-Cys-Tyr-^DDab-Arg-)] (HELM PEPTIDE1{C.Y.N.[Orn].[NCC[C@@H](N[*:1])C(=O)[*:2]].[Dab].L.S.V.C.Y.[NCC[C@@H](N[*:1])C(=O)[*:2]].R.I}$PEPTIDE1,PEPTIDE1,1:R3-10:R3|PEPTIDE1,PEPTIDE1,1:R1-14:R2$$$V2.0)	0.25 µg/mL	0.5 µg/mL	0.25 µg/mL	4%	
CC(C)[C@@H]1NC(=O)[C@H](Cc2ccc(O)cc2)NC(=O)[C@@H](C)NC(=O)[C@H](CO)NC(=O)[C@@H]2CC(=O)NCC[C@H](NC1=O)C(=O)N[C@@H](Cc1ccc(O)cc1)C(=O)N[C@@H](CCN)C(=O)N[C@@H](CN)C(=O)N[C@H](CCN)C(=O)N[C@@H](CCN)C(=O)N[C@@H](Cc1c[nH]c3ccccc13)C(=O)N[C@@H](CN)C(=O)N[C@@H](C(C)(C)C)C(=O)N2 [Example 31, cyclo(-Val-Dab-Tyr-Dab-Dap-^DDab-Dab-Trp-Dap-tBuGly-Asp-Ser-^DAla-Tyr-)] (cyclo(DS[dA]YV[Dab]Y[Dab][Dap][dDab][Dab]W[Dap][Tle]); lactam 1-6)	4 µg/mL	1 µg/mL	1 µg/mL	1%	
CC(C)[C@@H]1NC(=O)[C@@H]2CCCN2C(=O)[C@H]2CCCN2C(=O)[C@H](CO)NC(=O)[C@@H]2CCn3cc(nn3)C[C@H](NC1=O)C(=O)N[C@@H](Cc1ccc(O)cc1)C(=O)N[C@@H](CCN)C(=O)N[C@@H](CN)C(=O)N[C@H](CCN)C(=O)N[C@@H](CCN)C(=O)N[C@@H](Cc1c[nH]c3ccccc13)C(=O)N[C@@H](CCN)C(=O)N[C@@H](C(C)(C)C)C(=O)N2 [Example 34, cyclo(-Val-Pra-Tyr-Dab-Dap-^DDab-Dab-Trp-Dab-tBuGly-Abu(4N3)-Ser-^DPro-Pro-)] (cyclo(V[Pra]Y[Dab][Dap][dDab][Dab]W[Dab][Tle][Aha]S[dP]P); triazole 2-11)	4 µg/mL	4 µg/mL	2 µg/mL	0%	
